Test results published in ChEMBL document CHEMBL5376005, “Gut Metabolite Indoxyl Sulfate Has Selective Deleterious and Anticancer Effect on Colon Cancer Cells” (J Med Chem, 2023).
Counter-ions that a name gives are not always drawn. The source made the active and inactive calls. No cut-off for these calls is given here.

Key:
HCT-116 [1] = assay: Cytotoxicity against human HCT-116 cells assessed as reduction in cell viability measured after 24 to 72 hrs by MTT assay; type: functional, cell-based; conditions: dose 0.01-10 mM, time 24-72 hrs
[2] = Toxicity in wild type BALB/c mouse assessed as inflammatory symptoms by measuring change in TNFalpha level at 100 mM, REC measured for 0 to 3 months by ELISA; conditions: in vivo, other, 100000 µM, time 0-3 months
HCT-116 [3] = assay: Induction of apoptosis in human HCT-116 cells assessed as increase in apoptotic cells at 10 mM incubated for 48 hrs by annexin V-FITC/PI staining based flow cytometry analysis (reference value: 3%); type: functional
[4] = Toxicity in wild type BALB/c mouse assessed as inflammatory symptoms by measuring change in fecal consistency at 100 mM, REC measured after 12 weeks; conditions: in vivo, other, 2016 h, 100000 µM
HT-29 [5] = assay: Induction of morphological changes in human HT-29 cells assessed as detachment from substrate at 1.25 to 10 mM incubated for 24 to 72 hrs by bright field microscopy analysis; type: functional, cell-based; conditions: dose 1.25-10 mM, time 24-72 hrs
HT-29 [6] = assay: Induction of cell cycle arrest in human HT-29 cells assessed as increase in proportion of cells at G2/M phase at 5 mM incubated for 48 hrs by RNase A/Triton X-100/PI staining based flow cytometry analysis relative to control; type: functional
[7] = Toxicity in wild type BALB/c mouse assessed as change in spleen length at 100 mM, REC measured after 12 weeks; conditions: in vivo, other, 2016 h, 100000 µM
[8] = Toxicity in wild type BALB/c mouse assessed as histological change in rectum at 100 mM, REC measured after 12 weeks by H and E staining based light microscopic analysis; conditions: in vivo, other, 2016 h, 100000 µM
[9] = Toxicity in wild type BALB/c mouse assessed as change in intestinal length at 100 mM, ip measured after 12 weeks; type: organism-based, Intestine; conditions: in vivo, 2016 h, 100000 µM
HT-29 [10] = assay: Cytotoxicity against human HT-29 cells assessed as reduction in colony formation pretreated for 48 hrs and further incubated for 10 days with media replacement for every alternate day; type: functional, cell-based; conditions: dose 1.25-10 mM
HT-29 [11] = assay: Induction of apoptosis in human HT-29 cells assessed as increase in apoptotic cells at 5 mM incubated for 48 hrs by annexin V-FITC/PI staining based flow cytometry analysis (reference value: 3%); type: functional
HCT-116 [12] = assay: Induction of ROS production in human HCT-116 cells incubated for 48 hrs by DHE staining based analysis; type: functional, cell-based
[13] = Toxicity in wild type BALB/c mouse assessed as inflammatory symptoms by measuring change in fecal consistency at 100 mM, ip measured after 12 weeks; type: organism-based; conditions: in vivo, 2016 h, 100000 µM
HT-29 [14] = assay: Induction of morphological changes in human HT-29 cells assessed as loss of adhesion with free floating in medium at 10 mM incubated for 24 to 72 hrs by bright field microscopy analysis; type: functional, cell-based; conditions: time 24-72 hrs
HCT-116 [15] = assay: Cytotoxicity against human HCT-116 cells assessed as reduction in cell viability at 0.01 to 10 mM by CellTiter-Glo luminescent cell viability assay; type: functional, cell-based; conditions: dose 0.01-10 mM, time 48-72 hrs, TDE = time-dependent effect
HT-29 [16] = assay: Cytotoxicity against human HT-29 cells assessed as cell viability at 10 mM measured after 48 hrs by MTT assay (reference value: 100%); type: functional; conditions: HT-29, 48 h, read-out: Activity
HCT-116 [17] = assay: Cytotoxicity against human HCT-116 cells assessed as cell viability at 10 mM measured after 72 hrs by CellTiter-Glo luminescent cell viability assay (reference value: 100%); type: functional; conditions: HCT-116, 72 h, read-out: Activity
[18] = Toxicity in wild type BALB/c mouse assessed as histological change in colon at 100 mM, ip measured after 12 weeks by H and E staining based light microscopic analysis; type: organism-based; conditions: in vivo, 2016 h, 100000 µM
HT-29 [19] = assay: Cytotoxicity against human HT-29 cells assessed as cell viability at 10 mM measured after 24 hrs by MTT assay (reference value: 100%); type: functional; conditions: HT-29, 24 h, read-out: Activity
HCT-116 [20] = assay: Induction of cell cycle arrest in human HCT-116 cells assessed as increase in proportion of cells at G2/M phase incubated for 48 hrs by RNase A/Triton X-100/PI staining based flow cytometry analysis; type: functional; conditions: dose 1.25-10 mM
Cell membrane [21] = assay: Induction of membrane integrity loss in human HCT-116 cells assessed as increase in LDH release in supernatant incubated for 48 hrs by absorbance based assay; type: subcellular; conditions: dose 1.25-10 mM
HT-29 [22] = assay: Cytotoxicity against human HT-29 cells assessed as reduction in cell viability measured after 24 to 72 hrs by MTT assay; type: functional, cell-based; conditions: dose 0.01-10 mM, time 24-72 hrs
HT-29 [23] = assay: Cytotoxicity against human HT-29 cells assessed as cell viability at 10 mM measured after 72 hrs by CellTiter-Glo luminescent cell viability assay (reference value: 100%); type: functional; conditions: HT-29, 72 h, read-out: Activity
Cell membrane [24] = assay: Induction of membrane integrity loss in human HCT-116 cells assessed as LDH release in supernatant at 5 mM incubated for 48 hrs by absorbance based assay relative to control; type: subcellular
HT-29 [25] = assay: Induction of morphological changes in human HT-29 cells assessed as reduction in cell number at 1.25 to 10 mM incubated for 24 to 72 hrs by bright field microscopy analysis; type: functional, cell-based; conditions: dose 1.25-10 mM, time 24-72 hrs
HCT-116 [26] = assay: Cytotoxicity against human HCT-116 cells assessed as cell viability at 10 mM measured after 72 hrs by MTT assay (reference value: 100%); type: functional; conditions: HCT-116, 72 h, read-out: Activity
HCT-116 [27] = assay: Cytotoxicity against human HCT-116 cells assessed as reduction in colony formation pretreated for 48 hrs and further incubated for 10 days with media replacement for every alternate day; type: functional, cell-based; conditions: dose 1.25-10 mM
HCT-116 [28] = assay: Induction of morphological changes in human HCT-116 cells assessed as appearance of rounded morphology at 1.25 to 10 mM incubated for 24 to 72 hrs by bright field microscopy analysis; type: functional, cell-based; conditions: dose 1.25-10 mM, time 24-72 hrs
HCT-116 [29] = assay: Induction of morphological changes in human HCT-116 cells assessed as loss of adhesion with free floating in medium at 10 mM incubated for 24 to 72 hrs by bright field microscopy analysis; type: functional, cell-based; conditions: time 24-72 hrs
HCT-116 [30] = assay: Cytotoxicity against human HCT-116 cells assessed as cell viability at 10 mM measured after 48 hrs by MTT assay (reference value: 100%); type: functional; conditions: HCT-116, 48 h, read-out: Activity
HCT-116 [31] = assay: Induction of cell cycle arrest in human HCT-116 cells assessed as increase in proportion of cells at G2/M phase at 5 mM incubated for 48 hrs by RNase A/Triton X-100/PI staining based flow cytometry analysis relative to control; type: functional
HT-29 [32] = assay: Induction of ROS production in human HT-29 cells incubated for 48 hrs by DHE staining based analysis; type: functional, cell-based
[33] = Toxicity in wild type BALB/c mouse assessed as change in intestinal length at 100 mM, REC measured after 12 weeks; type: tissue-based, Intestine; conditions: in vivo, other, 2016 h, 100000 µM

Activity (Cell membrane [21]): Dose-Dependent Effect
Activity (Cell membrane [24]): 80%
Compound: O=S(=O)(O)Oc1c[nH]c2ccccc12 [INDOXYL SULFATE]
Activity (HCT-116 [1]): Dose-Dependent Effect
Activity [2]: Non-Toxic
Activity (HCT-116 [3]): 13%
Activity [4]: Non-Toxic
Activity (HT-29 [5]): Active
Activity (HT-29 [6]): 14.2%
Activity [7]: Non-Toxic
Activity [8]: Non-Toxic
Activity [9]: Non-Toxic
Activity (HT-29 [10]): Dose-Dependent Effect
Activity (HT-29 [11]): 8%
Activity (HCT-116 [12]): inactive
Activity [13]: Non-Toxic
Activity (HT-29 [14]): Active
Activity (HCT-116 [15]): Tde
viability at 10000 µM (HT-29 [16]): 30%
viability at 10000 µM (HCT-116 [17]): 3%
Activity [18]: Non-Toxic
viability at 10000 µM (HT-29 [19]): 41%
Activity (HCT-116 [20]): Dose-Dependent Effect
Activity (HT-29 [22]): Dose-Dependent Effect
viability at 10000 µM (HT-29 [23]): 19%
Activity (HT-29 [25]): Active
viability at 10000 µM (HCT-116 [26]): 4%
Activity (HCT-116 [27]): Dose-Dependent Effect
Activity (HCT-116 [28]): Active
Activity (HCT-116 [29]): Active
viability at 10000 µM (HCT-116 [30]): 7%
Activity (HCT-116 [31]): 18.1%
Activity (HT-29 [32]): inactive
Activity [33]: Non-Toxic
